For assay [1], the system named is LXFE2478 organoid, NSCLC (squamous subtype). Briefly: 3D clonogenic assay in patient derived organoids. As to conditions: for Combination activity 5 μM Compound 1 (cAUC % reduction): chemotherapy dose titration + 5 μM Compound 1 vs chemotherapy alone; for Combination activity 20 μM Compound 1 (cAUC % reduction): chemotherapy dose titration + 20 μM Compound 1 vs chemotherapy alone. In kind it is cell-based, human. As for the experimental part: (§1) Five tumor cell lines (4T1.2, A549, EMT6, NCI-H460, and HT29) were treated with a range of paclitaxel or 5-FU concentrations in the presence of dimethlylsulfoxide (DMSO), 5 μM Compound 1, or 20 μM Compound 1. Cells were imaged 4 days after treatment and percent confluence was assessed by image quantification. EC50 values for cell confluence were used to assess chemotherapy potency. Eleven patient-derived tumor organoids (MAXFTN449, MAXFTN2990, PAXF1657, PAXF2131, CXF1256, CXF2129, CXF2061, LXFE2478, LXFE690, LXFA677, LXFA644) were seeded in a 3D matrix and treated with a range of paclitaxel, 5-FU, SN38, Gemcitabine, oxaliplatin, and carboplatin concentrations in the presence of DMSO, 5 μM Compound 1, or 20 μM Compound 1. After 8 to 13 days in culture, colonies were stained, imaged, and counted. A dose response curve was generated for chemotherapy alone or chemotherapy in combination with 5 or 20 μM Compound 1. Combination activity was defined as a percentage of the area under the chemotherapy dose response curve (cAUC) for Compound 1 combination groups compared to the cAUC of chemotherapy alone.
(§2) For combination experiments, working stock solutions of all compounds were prepared in DMSO at concentrations of 660-fold the highest test concentration used and stored at −20° C. Platin compounds were prepared freshly on each treatment day. On each day of an experiment, an aliquot of the working stock solutions was used and stored at room temperature prior to and during treatment. First, 1:2 dilutions of 660-fold concentrated working stocks were prepared in DMSO (in case of monotherapy controls), or equal amounts of the compound working stocks were mixed (in case of drug combinations). Then, different dilutions of these 330-fold concentrated solutions were prepared in DMSO to give an 8×2 matrix combination layout with conditions. The DMSO dilutions were further diluted […] into cell culture medium (IMDM, supplemented with 20% (v/v) fetal bovine serum, and 50 μg/mL gentamicin) in an intermediate dilution plate. Finally, 10 μL taken from the intermediate dilution plate were transferred to 140 μL of cells and medium per well of the final assay plate. Thus, the DMSO dilutions used for the mono- and the combination-treatment were diluted 1:660, and the DMSO concentration in the assay was […].
(§3) Tumors were passaged as subcutaneous xenografts in NMRI nu/nu mice. At a tumor volume of 400 to 1000 mm^3, tumor-bearing mice were euthanized, and tumors were collected under sterile conditions without delay. Tumors were mechanically disaggregated and subsequently incubated with an enzyme cocktail consisting of collagenase type IV (41 U/mL), DNase I (125 U/mL), hyaluronidase type III (100 U/mL), and dispase II (1 U/mL) in RPMI 1640 medium at 37° C. for 60 to 120 minutes. Cells were passed through sieves of 100 μm and 40 μm mesh size, and washed with RPMI 1640 medium. The percentage of viable cells was determined in a Neubauer-hemocytometer using trypan blue exclusion. Aliquots of the cells were frozen down and stored in liquid nitrogen vapor phase. On each day of an experiment, a frozen aliquot of tumor cells was thawed and used for preparation of assay plates.
(§4) The clonogenic assay was carried out in a 96 well plate format using ultra low attachment plates. For each test, plates were prepared as follows: each test well contained a layer of semi-solid medium with tumor cells (50 μL), and a second layer of medium supernatant with or without test compound (100 μL). The cell layer consisted of […] to 12.5×10^3 tumor cells per well, which were seeded in 50 μL/well cell culture medium (IMDM, supplemented with 20% (v/v) fetal bovine serum, 50 μg/mL gentamicin, and 0.4% (w/v) agar). After 24 hours, the soft-agar layer was covered with 90 μL of the same culture medium without agar, and 10 μL of control medium or test compound after serial dilution in DMSO for the duration of the experiment (continuous exposure, 100 μL drug overlay).

In assay [2] the test system is LXFE690 organoid, NSCLC (squamous subtype). The assay is described as follows: 3D clonogenic assay in patient derived organoids. The format is cell-based, human. As to conditions: for Combination activity 5 μM Compound 1 (cAUC % reduction): chemotherapy dose titration + 5 μM Compound 1 vs chemotherapy alone; for Combination activity 20 μM Compound 1 (cAUC % reduction): chemotherapy dose titration + 20 μM Compound 1 vs chemotherapy alone. As for the experimental part: as §1, §2, §3, §4

The subject of assay [3] is LXFA677 organoid, NSCLC (adenocarcinoma subtype). Briefly: 3D clonogenic assay in patient derived organoids. In kind it is cell-based, human. As for the experimental part:
as §1, §2, §3, §4

The test system of assay [4] is LXFA644 organoid, NSCLC (adenocarcinoma subtype). The assay is described as follows: 3D clonogenic assay in patient derived organoids. As to conditions: for Combination activity 5 μM Compound 1 (cAUC % reduction): chemotherapy dose titration + 5 μM Compound 1 vs chemotherapy alone. The format is cell-based, human. As for the experimental part: as §1, §2, §3, §4
The test system of assay [5] is PAXF1657 organoid, pancreatic cancer. Briefly: 3D clonogenic assay in patient derived organoids. In kind it is cell-based, human. As to conditions: for Combination activity 20 μM Compound 1 (cAUC % reduction): chemotherapy dose titration + 20 μM Compound 1 vs chemotherapy alone. As for the experimental part:
as §1, §2, §3, §4

Assay [6] relates to PAXF2131 organoid, Pancreatic cancer. The assay is described as follows: 3D clonogenic assay in patient derived organoids. As to conditions: for Combination activity 20 μM Compound 1 (cAUC % reduction): chemotherapy dose titration + 20 μM Compound 1 vs chemotherapy alone. In kind it is cell-based, human. As for the experimental part:
as §1, §2, §3, §4

The test system of assay [7] is MAXFTN449 organoid, breast cancer (triple negative). The assay is described as follows: 3D clonogenic assay in patient derived organoids. The format is cell-based, human. As to conditions: for Combination activity 20 μM Compound 1 (cAUC % reduction): chemotherapy dose titration + 20 μM Compound 1 vs chemotherapy alone. As for the experimental part: as §1, §2, §3, §4

Assay [8] deals with MAXFTN2990 organoid, breast cancer (triple negative). Briefly: 3D clonogenic assay in patient derived organoids. In kind it is cell-based, human. As to conditions: for Combination activity 20 μM Compound 1 (cAUC % reduction): chemotherapy dose titration + 20 μM Compound 1 vs chemotherapy alone. As for the experimental part: as §1, §2, §3, §4
In assay [9] the test system is NCI-H460 cell line. The assay is described as follows: 2D cell line viability assay (cell confluence). The format is cell-based. As to conditions: Homo sapiens, NCI-H460, 96 h, 4 days. From the text:
(§5) FIGS. 4A-4E illustrate the effects of Compound 1 on the Potency of Paclitaxel in a 2D Cell Line Viability Assay. […] Data points indicate mean and Standard Deviation of 2 biological replicates. Graphs are representative of at least 2 independent experiments. […] Abbreviations: DMSO, dimethylsulfoxide.

In assay [10] the test system is A549 cell line. Briefly: 2D cell line viability assay (cell confluence). The format is cell-based. As to conditions: Homo sapiens, A549, 96 h, 4 days.
Excerpt: as §5

For assay [11], the system named is HT29 cell line. Briefly: 2D cell line viability assay (cell confluence). The format is cell-based. As to conditions: Homo sapiens, HT-29, 96 h, 4 days.
Excerpt: as §5

The test system of assay [12] is 4T1.2 cell line. The assay is described as follows: 2D cell line viability assay (cell confluence). The format is cell-based, murine. As to conditions: Mus musculus, 4T1.2, 96 h.
Excerpt: as §5

Assay [13] relates to EMT6 cell line. The assay is described as follows: 2D cell line viability assay (cell confluence). The format is cell-based, murine. As to conditions: Mus musculus, EMT6, 96 h, 4 days.
Excerpt: as §5

The mark [14] stands for this setting: chemotherapy dose titration + 5 μM Compound 1 vs chemotherapy alone.
The mark [15] stands for this setting: chemotherapy dose titration + 20 μM Compound 1 vs chemotherapy alone.
[16] abbreviates: in the presence of 5 μM Compound 1.
The mark [17] stands for this setting: in the presence of 20 μM Compound 1.

This is an account of results in patent US20240165112A1, “THERAPY FOR THE TREATMENT OF CANCER” (Bristol-Myers Squibb Company, priority 2022, published 2024).

SMILES strings stand for the structures.

On to `N.N.O=C([O-])C1(C(=O)[O-])CCC1.[Pt+2]` [Carboplatin, carboplatin], for which the “Combination activity 5 μM Compound 1 (cAUC % reduction)” value is reported as 27% in assay [1]; 73% in [2]; 7% in assay [3] (setting [14]); 5% in assay [4]; 50% in assay [4] (listed as carboplatin). Further, the “Combination activity 20 μM Compound 1 (cAUC % reduction)” value in assay [1] is given as 3%; in [2] it was 80%; in assay [3] (setting [15]), 14%; in assay [4] (setting [15]), 19%.

As a reminder, the EC50 is the concentration that produces a half-maximal response. With `CC(=O)O[C@H]1C(=O)[C@@]2(C)[C@H]([C@H](OC(=O)c3ccccc3)[C@]3(O)C[C@H](OC(=O)[C@H](O)[C@@H](NC(=O)c4ccccc4)c4ccccc4)C(C)=C1C3(C)C)[C@]1(OC(C)=O)CO[C@@H]1C[C@@H]2O` (relative stereo) [Paclitaxel, (1S,2S,3R,4S,7R,9S,10S,12R,15S)-4,12-diacetoxy-15-{[(2R,3S)-3-(benzoylamino)-2-hydroxy-3-phenylpropanoyl]oxy}-1,9-dihydroxy-10,14,17,17-tetramethyl-11-oxo-6-oxatetracyclo[11.3.1.0˜3,10˜0.0˜4,7˜]heptadec-13-en-2-yl rel-benzoate], the “Combination activity 5 μM Compound 1 (cAUC % reduction)” value in assay [1] is given as 46%; in [5] (setting [14]), 50%; in assay [2], 87%; in assay [6] (setting [14]), 58%; in assay [7] (setting [14]), 57%; in [8] (setting [14]), 63%. Moreover, the “Combination activity 20 μM Compound 1 (cAUC % reduction)” value in assay [1] stood at 45%; in assay [1] (listed as paclitaxel) it was 45%; in assay [5], 64%; in [5] (listed as paclitaxel) it was 64%; in assay [2], 94%; in [2] (listed as paclitaxel), 94%. Further, the “Combination activity 20 μM Compound 1 (cAUC % reduction)” value in assay [6] was 71%; in [6] (listed as paclitaxel), 71%; in assay [7] it was 42%; in [7] (listed as paclitaxel), 42%; in assay [8] it was 77%; in assay [8] (listed as paclitaxel) it was 77%. Further, the EC50 came out at 6.5 nM in [9] (in the absence of Compound 1); 2.9 nM in assay [9] (setting [16]); 2.3 nM in assay [9] (setting [17]); 1.6 nM in assay [10] (in the absence of Compound 1); 1.6 nM in assay [10] (setting [16]); 1 nM in [10] (setting [17]). Also, the 50% effective concentration (EC50) was found to be 1.8 nM in [11] (in the absence of Compound 1); 1.9 nM in [11] (setting [16]); 1.8 nM in assay [11] (setting [17]); 48 nM in assay [12] (4 days after treatment, in the absence of Compound 1); 16 nM in [12] (4 days, in the presence of 5 μM Compound 1); 3.4 nM in [12] (4 days, in the presence of 20 μM Compound 1). In addition, the concentration for a half-maximal effect (EC50) in assay [13] (in the absence of Compound 1) was 19 nM; in assay [13] (setting [16]), 5.5 nM; in [13] (setting [17]), 1.9 nM.
